This note sets out measurements from patent US20250059205A1, “Heterocyclic Compounds and Methods of Use” (AMGEN INC., priority 2021, published 2025).

Structures are written as SMILES. Where two headings read alike, the source gives them in different places.

Assay [1] deals with Phosphorylation of ERK1/2 in A-427 cells. The assay is described as follows: Phospho-ERK1/2 MSD Assay (A-427 cells). It is filed as cell-based. As to conditions: 2 h treatment, read-out: p-ERK (A427 cells) IC50. As for the experimental part: (§1) A-427 (ATCC® HTB-53™) cells were cultured in RPMI 1640 Medium (ThermoFisher Scientific 11875093) containing 10% fetal bovine serum (ThermoFisher Scientific 16000044) and 1× penicillin-streptomycin-glutamine (ThermoFisher Scientific 10378016). Sixteen hours prior to compound treatment, A-427 cells were seeded in 96-well cell culture plates at a density of 25,000 cells/well and incubated at 37° C., 5% CO2. A compound dose-response titration was diluted in growth media, added to appropriate wells of a cell culture plate, and then incubated at 37° C., 5% CO2 for 2 h. Following compound treatment, cells were washed with ice-cold Dulbecco's phosphate-buffered saline, no Ca^2+ or Mg^2+ (ThermoFisher Scientific 14190144), and then lysed in RIPA buffer (50 mM Tris-HCl pH 7.5, 1% Igepal, 0.5% sodium deoxycholate, 150 mM NaCl, and 0.5% sodium dodecyl sulfate) containing protease inhibitors (Roche 4693132001) and phosphatase inhibitors (Roche 4906837001). Phosphorylation of ERK1/2 in compound-treated lysates was assayed using Phospho-ERK1/2 Whole Cell Lysate kits (Meso Scale Discovery K151DWD) according to the manufacturer's protocol. Assay plates were read on a Meso Scale Discovery Sector Imager 6000, and data were analyzed using a 4-parameter logistic model to calculate IC50 values.

In assay [2] the test system is Phosphorylation of ERK1/2 in AsPC-1 cells. The assay is described as follows: Phospho-ERK1/2 MSD Assay (AsPC-1 cells). The format is cell-based. As to conditions: 2 hours treatment, read-out: p-ERK (AsPC-1 cells) IC50. As for the experimental part:
as §1, with “AsPC-1” for “A-427”, “CRL-1682™)” for “HTB-53™)”, “hours.” for “h.”

The target in assay [3] is His-tagged KRAS G12D protein (Homo sapiens, UniProt P01116, G12D). The assay is described as follows: KRAS G12D TR-FRET Assay. It is filed as binding. The method, then: Compounds of interest were prepared in a dose-response titration in DMSO, and 80 nL were added via Labcyte Echo to each well of a 384-well plate (Perkin Elmer 6008280). […] The plate was incubated for 30 minutes at room temperature. Biotinylated KRPep-2d substrate (Amgen) was diluted to 20 nM in Assay Buffer and 2 μL was added to all wells and incubated for 1 h at room temperature. Detection Reagent (0.4 nM LANCE Eu-W1024 Anti-6xHis (Perkin Elmer AD0401), 5 nM streptavidin-d2 (Cisbio 610SADLA)) was prepared in Assay Buffer, then 4 μL was added to the plate and incubated for 1 h at room temperature. Plates were read using PerkinElmer EnVision (ex: 320 nm, em1: 665 nm, em2: 615 nm) and em1/em2 data was used to generate curve fits using a 4-parameter logistic model to calculate IC50 values.
His-tagged KRAS G12D protein, sequence (P01116 1-188 isoform P01116-2 G12D): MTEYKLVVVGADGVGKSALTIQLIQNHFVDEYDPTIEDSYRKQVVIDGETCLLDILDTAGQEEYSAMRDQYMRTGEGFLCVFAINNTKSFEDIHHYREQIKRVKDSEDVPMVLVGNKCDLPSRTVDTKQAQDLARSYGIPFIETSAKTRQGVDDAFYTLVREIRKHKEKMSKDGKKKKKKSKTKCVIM
On the technique in general: TR-FRET usually uses a lanthanide donor and a delayed reading to cut background.

Assay [4] concerns the target GDP-bound KRAS protein (aa 1-169), containing both G12D and C118A amino acid substitutions (Homo sapiens, UniProt P01116, C118A/G12D). The assay is described as follows: KRAS G12D Coupled Nucleotide Exchange Assay. It is filed as biochemical. Particulars: 2 h compound pre-incubation. As for the experimental part: Following compound pre-incubation, purified SOS protein (aa 564-1049) and GTP (Roche 10106399001) were added to the assay wells and incubated for an additional 30 min. […] The assay plates were then read on a PerkinElmer EnVision Multilabel Reader, using AlphaScreen® technology, and data were analyzed using a 4-parameter logistic model to calculate IC50 values.

GDP-bound KRAS protein (aa 1-169), containing both G12D and C118A amino acid substitutions, sequence (P01116 1-169 isoform P01116-2 G12D/C118A): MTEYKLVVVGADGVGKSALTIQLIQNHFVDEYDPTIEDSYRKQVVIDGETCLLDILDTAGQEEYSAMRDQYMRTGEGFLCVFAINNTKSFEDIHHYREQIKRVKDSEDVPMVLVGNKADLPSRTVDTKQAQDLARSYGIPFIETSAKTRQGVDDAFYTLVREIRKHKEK

As for `CCc1c(F)ccc2cc(O)cc(-c3c(F)cc4c(N5CC6CCC(C5)N6)nc(OCC56CCCN5C[C@H](F)C6)nc4c3F)c12` (atropisomer, axis not shown; (M)) [Example 232, (M)-4-(4-((1R,5S)-3,8-diazabicyclo[3.2.1]octan-3-yl)-6,8-difluoro-2-(((2R,7aS)-2-fluorotetrahydro-1H-pyrrolizin-7a(5H)-yl)methoxy)quinazolin-7-yl)-5-ethyl-6-fluoronaphthalen-2-ol], the IC50 came to 0.003 µM in assay [1] (Homo sapiens, A-427, 2 h); 0.008 µM in assay [2] (Homo sapiens, ASPC1, 2 h); 0.001 µM in assay [3]. The “Avg 2 h Coupled Exchange IC50” value in assay [4] is 0.002 µM.
For the compound `Oc1cc(-c2c(F)cc3c(N4C[C@@H]5CC[C@H]4CN5)nc(OCC45CCCN4C[C@H](F)C5)nc3c2F)c2c(F)c(F)ccc2c1` (atropisomer, axis not shown; (M)) [Example 233, (M)-4-(4-((1S,4S)-2,5-Diazabicyclo[2.2.2]octan-2-yl)-6,8-difluoro-2-(((2R,7aS)-2-fluorotetrahydro-1H-pyrrolizin-7a(5H)-yl)methoxy)quinazolin-7-yl)-5,6-difluoronaphthalen-2-ol], the IC50 in assay [1] (Homo sapiens, A-427, 2 h) came to 0.005 µM; in assay [2] (Homo sapiens, ASPC1, 2 h), 0.027 µM; in assay [3], 0.001 µM. Further, in assay [4], the “Avg 2 h Coupled Exchange IC50” value turned out to be 0.001 µM.
As for `CCc1c(F)ccc2cc(O)cc(-c3c(F)cc4c(N5C6CCC5C(=O)NC6)nc(OC[C@@]56CCCN5C[C@H](F)C6)nc4c3F)c12` (single isomer, unassigned) [Example 175], the IC50 in assay [1] (Homo sapiens, A-427, 2 h) stood at 0.448 µM; in assay [2] (Homo sapiens, ASPC1, 2 h), 1.56 µM; in assay [3] it was 0.006 µM. For the same compound, the “Avg 2 h Coupled Exchange IC50” value in assay [4] worked out at 0.004 µM.
`CCc1c(F)ccc2cc(O)cc(-c3c(F)cc4c(N5C6CCC5C(=O)NC6)nc(OC[C@@]56CCCN5C[C@H](F)C6)nc4c3F)c12` (single isomer, unassigned) [Example 176]: the half-maximal inhibitory concentration (IC50) in assay [1] was determined as 0.545 µM; in assay [2] it was 2.65 µM; in assay [3] it was 0.011 µM. Further, in assay [4], the “Avg 2 h Coupled Exchange IC50” value amounted to 0.007 µM.
Regarding `Cc1c(-c2cc(O)cc3ccccc23)ccc2c(N3CC4CCC(C3)N4)nc(OCC34CCCN3C[C@H](F)C4)nc12` (stereo in doubt) [Example 32, 4-(4-((1R,5S)-3,8-diazabicyclo[3.2. 1]octan-3-yl)-2-(((2R,7aS)-2-fluorotetrahydro-1H-pyrrolizin-7a(5H)-yl)methoxy)-8-methylquinazolin-7-yl)naphthalen-2-ol], the IC50 in assay [1] (Homo sapiens, A-427, 2 h) was 0.341 µM; in assay [2] (Homo sapiens, ASPC1, 2 h), 0.712 µM; in assay [3], 0.005 µM. Moreover, in assay [4], the “Avg 2 h Coupled Exchange IC50” value was 0.002 µM.
As to `Oc1cc(Cl)c(C2CC2)c(-c2c(F)cc3c(N4CC5CCC4CN5)nc(OC[C@@]45CCCN4C[C@H](F)C5)nc3c2F)c1` (stereo in doubt) [Example 143, 3-(4-((1R,4R)-2,5-diazabicyclo[2.2.2]octan-2-yl)-6,8-difluoro-2-(((2R,7aS)-2-fluorotetrahydro-1H-pyrrolizin-7a(5H)-yl)methoxy)quinazolin-7-yl)-5-chloro-4-cyclopropylphenol], the half-maximal inhibitory concentration (IC50) is 0.013 µM in assay [1] (Homo sapiens, A-427, 2 h); 0.046 µM in assay [2] (Homo sapiens, ASPC1, 2 h); 0.003 µM in assay [3]. Further, the “Avg 2 h Coupled Exchange IC50” value in assay [4] is 0.003 µM.
Regarding `Oc1cc(-c2ccc3c(N4[C@@H]5CC[C@H]4CNC5)nc(OC[C@@]45CCCN4C[C@H](F)C5)nc3c2F)c2ccccc2c1` [Example 1, 4-(4-((1R,5S)-3,8-Diazabicyclo[3.2.1]octan-8-yl)-8-fluoro-2-(((2R,7aS)-2-fluorotetrahydro-1H-pyrrolizin-7a(5H)-yl)methoxy)quinazolin-7-yl)naphthalen-2-ol], the IC50 in assay [1] (Homo sapiens, A-427, 2 h) stood at 0.171 µM; in assay [2] (Homo sapiens, ASPC1, 2 h), 0.42 µM; in assay [3] it was 0.004 µM. In addition, in assay [4], the “Avg 2 h Coupled Exchange IC50” value was 0.003 µM.
Turning to `Oc1cc(-c2ccc3c(N4[C@@H]5CNC[C@H]4COC5)nc(OC[C@@]45CCCN4C[C@H](F)C5)nc3c2F)c2ccccc2c1` [Example 2, 4-(4-((1R,5S)-3-oxa-7,9-diazabicyclo[3.3. 1]nonan-9-yl)-8-fluoro-2-(((2R,7aS)-2-fluorotetrahydro-1H-pyrrolizin-7a(5H)-yl)methoxy)quinazolin-7-yl)naphthalen-2-ol], the IC50 came out at 0.222 µM in assay [1] (Homo sapiens, A-427, 2 h); 0.721 µM in assay [2] (Homo sapiens, ASPC1, 2 h); 0.007 µM in assay [3]. Further, the “Avg 2 h Coupled Exchange IC50” value in assay [4] was found to be 0.004 µM.
Consider `Oc1cc(-c2ccc3c(N4[C@@H]5CC[C@H]4CNC5)nc(OC[C@]45CCCN4C[C@H](F)C5)nc3c2F)c2ccccc2c1` [Example 3, 4-(4-((1R,5S)-3,8-diazabicyclo[3.2. 1]octan-8-yl)-8-fluoro-2-(((2R,7aR)-2-fluorotetrahydro-1H-pyrrolizin-7a(5H)-yl)methoxy)quinazolin-7-yl)naphthalen-2-ol], for which the 50% inhibitory concentration (IC50) in assay [1] (Homo sapiens, A-427, 2 h) is 0.65 µM; in assay [2] (Homo sapiens, ASPC1, 2 h), 0.812 µM; in assay [3] it was 0.01 µM. The “Avg 2 h Coupled Exchange IC50” value in assay [4] came to 0.005 µM.
For the compound `Oc1cc(-c2c(F)cc3c(N4[C@@H]5CC[C@H]4CNC5)nc(OC[C@@]45CCCN4C[C@H](F)C5)nc3c2F)c2ccccc2c1` [Example 12, 4-(4-((1R,5S)-3,8-diazabicyclo[3.2. 1]octan-8-yl)-6,8-difluoro-2-(((2R,7aS)-2-fluorotetrahydro-1H-pyrrolizin-7a(5H)-yl)methoxy)quinazolin-7-yl)naphthalen-2-ol], the IC50 amounted to 0.09 µM in assay [1] (Homo sapiens, A-427, 2 h) and 0.293 µM in assay [2] (Homo sapiens, ASPC1, 2 h).
In the case of `Oc1cc(-c2c(F)cc3c(N4C[C@H]5CC[C@@H](C4)N5)nc(OC[C@]45CCCN4C[C@H](F)C5)nc3c2F)c2ccccc2c1` [Example 43, 4-(4-((1R,5S)-3,8-diazabicyclo[3.2. 1]octan-3-yl)-6,8-difluoro-2-(((2R,7aR)-2-fluorotetrahydro-1H-pyrrolizin-7a(5H)-yl)methoxy)quinazolin-7-yl)naphthalen-2-ol], the IC50 amounted to 0.016 µM in assay [1] (Homo sapiens, A-427, 2 h) and 0.09 µM in assay [2] (Homo sapiens, ASPC1, 2 h).
As for `Oc1cc(-c2c(F)cc3c(N4C[C@H]5CC[C@@H](C4)N5)nc(OC[C@@]45CCCN4C[C@H](F)C5)nc3c2F)c2ccccc2c1` [Example 47, 4-(4-((1R,5S)-3,8-diazabicyclo[3.2. 1]octan-3-yl)-6,8-difluoro-2-(((2R,7aS)-2-fluorotetrahydro-1H-pyrrolizin-7a(5H)-yl)methoxy)quinazolin-7-yl)naphthalen-2-ol], in assay [1] (Homo sapiens, A-427, 2 h), the IC50 stood at 0.011 µM.
As to `CCc1c(F)ccc2cc(O)cc(-c3c(F)cc4c(N5C[C@H]6CC[C@@H](C5)N6)nc(OCC5(C)CCC(=O)N5)nc4c3F)c12` (stereo partly drawn) [Example 216, 5-(((4-((1R,5S)-3,8-diazabicyclo[3.2.1]octan-3-yl)-7-(8-ethyl-7-fluoro-3-hydroxynaphthalen-1-yl)-6,8-difluoroquinazolin-2-yl)oxy)methyl)-5-methylpyrrolidin-2-one], the IC50 came out at 0.834 µM in assay [2] (Homo sapiens, ASPC1, 2 h) and 0.005 µM in assay [3]. Besides, in assay [4], the “Avg 2 h Coupled Exchange IC50” value was 0.009 µM.

The term IC50 denotes the concentration at which inhibition is half-maximal.
